Three molecules from the NIST ThermoML archive (doi:10.1016/j.fluid.2007.05.026) can be followed below.

± gives the expanded uncertainty stated by the source.

The conditions of data set [1]: for mass density: 101.33 kPa, Vibrating tube method; for Normal melting temperature: visual observation.
A short description of data set [2]: refractive index (Na D-line) (dimensionless). The settings on record: 101.33 kPa, Liquid, Standard Abbe refractometry.

For the molecule `Oc1ccc(O)cc1` [1,4-benzenediol], the mass density in data set [1] (298.15 K, Crystal) came to 1338 ± 2 kg/m3. Moreover, in data set [1] (Crystal), the Normal melting temperature is 171.40 ± 0.5 °C.

Consider `CC(=O)CC(C)C` [4-methylpentan-2-one], for which, in data set [1] (298.15 K, Liquid), the mass density came out at 799.8 ± 0.3 kg/m3. Moreover, the Normal boiling temperature in data set [1] (Liquid, Manometric method) worked out at 117.60 ± 0.1 °C. For the same molecule, the refractive index in data set [2] (298.15 K) stood at 1.396 ± 0.0008.

On to `Oc1ccccc1` [phenol], for which, in data set [1] (314.45 K, Liquid), the mass density is on record as 1061 ± 1 kg/m3. Besides, the Normal melting temperature in data set [1] (Crystal) was 41.30 ± 0.5 °C. Also, the refractive index in data set [2] (314.45 K) was 1.5425 ± 0.0007.

As a reminder, the mass density is the mass of a sample divided by its volume. As a reminder, the refractive index is a measure of how strongly the sample bends light.
